Source: ChEMBL document CHEMBL1201862, “PubChem BioAssay data set” (2004)
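Where inhibition never reached the appropriate level, the endpoint shown equals the highest concentration tested. Otherwise, values were interpolated linearly from a five-concentration, 48-hour dose response in 96-well plates. GI50: concentration for 50% inhibition of growth.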 The source made the active and inactive calls. No stated cut-off is given here; in the data, active = GI50 up to about 1.1 µM and inactive = higher.

How the values were obtained:
Assay in all cases: growth of human tumour cells (NCI), 48 h
[1] = system: OVCAR-8
[2] = system: HL-60
[3] = system: UACC-257
[4] = system: SK-MEL-28
[5] = system: UO-31
[6] = system: M14
[7] = system: HCC 2998
[8] = system: SR
[9] = system: ACHN
[10] = system: HOP-62
[11] = system: SF-295
[12] = system: LOX IMVI
[13] = system: CCRF-CEM
[14] = system: SW-620
[15] = system: SNB-75
[16] = system: KM12
[17] = system: SF-539
[18] = system: NCI/ADR-RES

Structure (SMILES) | GI50 [1] | GI50 [2] | GI50 [3] | GI50 [4] | GI50 [5] | GI50 [6] | GI50 [7] | GI50 [8] | GI50 [9] | GI50 [10] | GI50 [11] | GI50 [12] | GI50 [13] | GI50 [14] | GI50 [15] | GI50 [16] | GI50 [17] | GI50 [18]
CCOC(=O)C12CC1(C(=O)OCC)C1CCC2C1 (stereo not drawn) | > 100 µM (inactive) | 71.6 µM (inactive) | 44.7 µM (inactive) | > 100 µM (inactive) | > 100 µM (inactive) | > 100 µM (inactive) | > 100 µM (inactive) | 49.9 µM (inactive) | > 100 µM (inactive) | > 100 µM (inactive) | > 100 µM (inactive) | > 100 µM (inactive) | > 100 µM (inactive) | > 100 µM (inactive) |  |  |  | 
O/N=C1/C(=C/c2ccc(F)cc2)CCCC1C(NO)c1ccc(F)cc1 (stereo not drawn) | 35.8 µM (inactive) | 25.1 µM (inactive) | 25.4 µM (inactive) | 25.8 µM (inactive) | 25.6 µM (inactive) | 32.8 µM (inactive) | 35.6 µM (inactive) |  | > 100 µM (inactive) | > 100 µM (inactive) | 41 µM (inactive) |  | 33.2 µM (inactive) | 51.9 µM (inactive) | 50.1 µM (inactive) | 22.3 µM (inactive) | 42.2 µM (inactive) | 
O=P1(Oc2ccc(Cl)cc2Cl)Oc2ccc3ccccc3c2-c2c(ccc3ccccc23)O1 | 40.1 µM (inactive) | 22.9 µM (inactive) | 59 µM (inactive) | 32.5 µM (inactive) | 20.4 µM (inactive) |  | 24.9 µM (inactive) |  |  | 20.2 µM (inactive) | 34.8 µM (inactive) | 24 µM (inactive) | 28 µM (inactive) | 32.4 µM (inactive) | 31.5 µM (inactive) | 32.9 µM (inactive) | 21.6 µM (inactive) | > 68.5 µM (inactive)
C/C(=C1/N=C(c2cc([N+](=O)[O-])ccc2Cl)N(C2=CC=C(Cl)CC2)C1=O)c1cc2ccccc2oc1=O | 51.5 µM (inactive) | 20 µM (inactive) | 26.5 µM (inactive) | 26.3 µM (inactive) | 21.8 µM (inactive) | 23.9 µM (inactive) | 24.7 µM (inactive) | 28.6 µM (inactive) | 3.93 µM (inactive) | 31.5 µM (inactive) | 41.7 µM (inactive) | 20.4 µM (inactive) | 40.3 µM (inactive) | 36.5 µM (inactive) | 32.4 µM (inactive) | 19.9 µM (inactive) | 10.7 µM (inactive) | 
Cc1cc(O)nc(NN2C(Cl)C(=O)C2c2cccc(O)c2)n1 (stereo not drawn) | 7.21 µM (inactive) | 4.26 µM (inactive) | 18.7 µM (inactive) | 26.5 µM (inactive) | 3.83 µM (inactive) | 7.13 µM (inactive) | 15.1 µM (inactive) | 4.11 µM (inactive) | 4.61 µM (inactive) | 4.49 µM (inactive) |  | 4.53 µM (inactive) | 4.63 µM (inactive) | 12.4 µM (inactive) | 1.64 µM (inactive) | 7.1 µM (inactive) | 2.74 µM (inactive) | 
O=[N+]([O-])c1cccc(C2=NOC3CCCC23)c1 (stereo not drawn) | > 100 µM (inactive) | > 100 µM (inactive) | > 100 µM (inactive) | > 100 µM (inactive) | > 100 µM (inactive) | > 100 µM (inactive) | > 100 µM (inactive) |  | > 100 µM (inactive) | > 100 µM (inactive) | > 100 µM (inactive) |  | > 100 µM (inactive) | > 100 µM (inactive) | > 100 µM (inactive) | > 100 µM (inactive) | > 100 µM (inactive) | 
O=c1c2ccccc2sc2nc(O)nn12 | > 100 µM (inactive) | > 100 µM (inactive) | > 100 µM (inactive) | > 100 µM (inactive) | > 100 µM (inactive) | > 100 µM (inactive) | > 100 µM (inactive) | > 100 µM (inactive) | > 100 µM (inactive) | > 100 µM (inactive) | > 100 µM (inactive) | > 100 µM (inactive) | > 100 µM (inactive) | > 100 µM (inactive) | > 100 µM (inactive) | > 100 µM (inactive) | > 100 µM (inactive) | 
Cc1cccc(/N=C2\NC(=O)C(CC(=O)Nc3ccc(C)cc3C)S2)c1 (stereo not drawn) | 70.6 µM (inactive) | > 100 µM (inactive) | > 100 µM (inactive) | > 100 µM (inactive) | 66.7 µM (inactive) | > 100 µM (inactive) | > 100 µM (inactive) | 52.6 µM (inactive) | > 100 µM (inactive) |  | 61.9 µM (inactive) | > 100 µM (inactive) | 92 µM (inactive) | > 100 µM (inactive) | > 100 µM (inactive) |  | > 100 µM (inactive) | 
COC(=O)C1=C(C)N(NC(=O)c2ccccc2)C2(O)CCCC(=O)C12C (stereo not drawn) | > 100 µM (inactive) |  | > 100 µM (inactive) | > 100 µM (inactive) | > 100 µM (inactive) | > 100 µM (inactive) |  |  | > 100 µM (inactive) |  | > 100 µM (inactive) | > 100 µM (inactive) |  | > 100 µM (inactive) | 63.5 µM (inactive) | > 100 µM (inactive) | > 100 µM (inactive) | 
COc1ccc(/C(=N\NC(=O)NN)C(c2ccc(OC)cc2)C2(O)C(=O)Nc3c(Cl)cc(Cl)cc32)cc1 (stereo not drawn) | > 100 µM (inactive) | 13.8 µM (inactive) | > 100 µM (inactive) | > 100 µM (inactive) | > 100 µM (inactive) | > 100 µM (inactive) | > 100 µM (inactive) |  | > 100 µM (inactive) | > 100 µM (inactive) | > 100 µM (inactive) | 99.3 µM (inactive) | 13.8 µM (inactive) | > 100 µM (inactive) | > 100 µM (inactive) | > 100 µM (inactive) |  | 
CC(C)c1ccc(O)c(=O)cc1 [GAMMA-THUJAPLICIN] | 3.46 µM (inactive) | 2.02 µM (inactive) | 3.38 µM (inactive) | 12.6 µM (inactive) | 3.42 µM (inactive) | 7.64 µM (inactive) | 7.08 µM (inactive) | 1.66 µM (inactive) | 6.05 µM (inactive) | 4.41 µM (inactive) | 4.02 µM (inactive) | 4.29 µM (inactive) | 1.86 µM (inactive) | 4.78 µM (inactive) | 20.6 µM (inactive) | 6.32 µM (inactive) | 2.38 µM (inactive) | 
Cc1cccc2c1C(=O)OC2(c1cccc2ccccc12)c1cccc2ccccc12 | 40.2 µM (inactive) | > 100 µM (inactive) | > 100 µM (inactive) | > 100 µM (inactive) | 79.3 µM (inactive) | > 100 µM (inactive) | > 100 µM (inactive) | > 100 µM (inactive) | 63.5 µM (inactive) | 27.4 µM (inactive) | 33.6 µM (inactive) | > 100 µM (inactive) | > 100 µM (inactive) | > 100 µM (inactive) | 21.3 µM (inactive) | > 100 µM (inactive) |  | 
CCOC(=O)/C(=C/c1ccccn1)C(=O)c1ccccc1 | 14.5 µM (inactive) | 2.19 µM (inactive) | 13.8 µM (inactive) | 11.8 µM (inactive) | 16.3 µM (inactive) | 15.1 µM (inactive) | 17.3 µM (inactive) | 3.32 µM (inactive) | 20.4 µM (inactive) | 15.2 µM (inactive) | 13 µM (inactive) | 2.48 µM (inactive) | 2.81 µM (inactive) | 14.2 µM (inactive) | 13.8 µM (inactive) | 11.9 µM (inactive) | 16.7 µM (inactive) | 
C/C=C/CP(=O)(c1ccccc1)c1ccccc1 | > 100 µM (inactive) | > 100 µM (inactive) | > 100 µM (inactive) | > 100 µM (inactive) | > 100 µM (inactive) | > 100 µM (inactive) | > 100 µM (inactive) | > 100 µM (inactive) | > 100 µM (inactive) | > 100 µM (inactive) | > 100 µM (inactive) | > 100 µM (inactive) | > 100 µM (inactive) | > 100 µM (inactive) | > 100 µM (inactive) | > 100 µM (inactive) | > 100 µM (inactive) | 
CC(=O)OCC1OC(Nc2nc(O)n(C)c(=O)c2-c2csc(N)n2)C(OC(C)=O)C(OC(C)=O)C1OC(C)=O (stereo not drawn) | > 100 µM (inactive) | 70 µM (inactive) | > 100 µM (inactive) | > 100 µM (inactive) | > 100 µM (inactive) | > 100 µM (inactive) |  | > 100 µM (inactive) | > 100 µM (inactive) | > 100 µM (inactive) | > 100 µM (inactive) | > 100 µM (inactive) | 67.6 µM (inactive) | > 100 µM (inactive) | > 100 µM (inactive) | > 100 µM (inactive) | > 100 µM (inactive) | 
COc1cccc2c1C(=O)c1c(O)c3c(c(O)c1C2=O)C[C@@](O)(C(=O)CO)CC3OC1CC(NCCCCC(OC(C)=O)OC(C)=O)C(O)C(C)O1 (stereo partly drawn) | 0.00305 µM (active) | 0.00202 µM (active) | 0.00468 µM (active) | 0.00335 µM (active) | 0.00192 µM (active) | 0.00169 µM (active) | 0.00223 µM (active) | 0.000337 µM (active) | 0.00243 µM (active) | 0.0021 µM (active) | 0.0034 µM (active) | 0.00179 µM (active) | 0.00227 µM (active) | 0.00259 µM (active) | 0.00137 µM (active) | 0.0024 µM (active) | 0.00212 µM (active) | 
CC1=C2C(O)C(C(C)CO)C(O)CC2(C)C(O)CC1 (stereo not drawn) | > 100 µM (inactive) | > 100 µM (inactive) | > 100 µM (inactive) | > 100 µM (inactive) | > 100 µM (inactive) | > 100 µM (inactive) | > 100 µM (inactive) | > 100 µM (inactive) | > 100 µM (inactive) | > 100 µM (inactive) | > 100 µM (inactive) | > 100 µM (inactive) | > 100 µM (inactive) | > 100 µM (inactive) | > 100 µM (inactive) | > 100 µM (inactive) | > 100 µM (inactive) | 
